We go through 14 molecules from PubChem BioAssay (NCI).

Among the test systems are IGROV1 ovarian; OVCAR-5 ovarian; OVCAR-8 ovarian; SR leukemia; TK-10 renal; UO-31 renal; SK-MEL-5 melanoma; A498 renal.
Common to all, as to test: growth of human tumour cells (NCI), 48 h

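Following 48 hours of exposure in 96-well plates, responses at five concentrations were used to interpolate endpoints linearly. Abbreviation: GI50, concentration required for 50% inhibition of growth. TGI: concentration producing complete growth inhibition.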

Turning to `CC1CCCc2c1c1ccc3c(O)cccc3c1oc2=O` (configuration not stated), the TGI with IGROV1 ovarian is above 100 µM; in the assay with OVCAR-5 ovarian, above 100 µM; in the assay with OVCAR-8 ovarian it was above 100 µM; in the assay on SR leukemia, above 100 µM; in the assay on TK-10 renal, 71.3 µM; with UO-31 renal it was above 100 µM.

`CCN(CC)c1ccc(N=C2C=C(Cl)C(=O)c3ncccc32)c(C)c1`: the TGI is 32 µM in the assay with IGROV1 ovarian; above 100 µM in the assay with OVCAR-8 ovarian; 11.3 µM with SK-MEL-5 melanoma; 29.2 µM in the assay with TK-10 renal; 41.6 µM in the assay on UO-31 renal.

As for `O=C(Nc1ccc(Br)cc1)C(=O)C(C(=O)c1ccccc1F)C1OC(=O)c2ccccc21` (configuration not stated), the TGI in the assay with A498 renal is above 100 µM; with IGROV1 ovarian, above 100 µM; in the assay with OVCAR-5 ovarian it was above 100 µM; in the assay with OVCAR-8 ovarian it was 70.3 µM; in the assay with SK-MEL-5 melanoma it was 87.1 µM; with TK-10 renal, above 100 µM. Besides, the TGI with UO-31 renal is 56.6 µM.

With `CCOC(=O)c1ccc(N2C(=O)Cc3ccccc3C2=O)cc1`, the TGI in the assay on IGROV1 ovarian, with OVCAR-5 ovarian, with OVCAR-8 ovarian, with SK-MEL-5 melanoma, in the assay on SR leukemia and with TK-10 renal was above 100 µM each time. In the assay on UO-31 renal, this molecule yielded a TGI above 100 µM.

Consider `OCC(O)C(O)C(O)c1nn(-c2ccccc2)c2nc3cc(Cl)c(Cl)cc3nc12` (configuration not stated), for which the TGI was above 100 µM in the assay on IGROV1 ovarian; 83.6 µM in the assay on OVCAR-5 ovarian; above 100 µM in the assay on OVCAR-8 ovarian; above 100 µM in the assay with SR leukemia; above 100 µM with TK-10 renal; above 100 µM in the assay with UO-31 renal.

Turning to `O=C(Nc1nc2ccc([N+](=O)[O-])cc2s1)C(=O)C(C(=O)c1ccncc1)C1OC(=O)c2ccccc21` (configuration not stated), the TGI with A498 renal, with IGROV1 ovarian, in the assay with OVCAR-5 ovarian, with OVCAR-8 ovarian and in the assay with SR leukemia was above 100 µM throughout.

For the molecule `CC(C)C(=O)[O-].CC(C)C(=O)[O-].N.N.N.N.[Co+3].[O-][Cl+3]([O-])([O-])[O-]`, the GI50 in the assay with A498 renal, in the assay on IGROV1 ovarian, in the assay on OVCAR-5 ovarian, in the assay on OVCAR-8 ovarian, in the assay on SK-MEL-5 melanoma and in the assay with TK-10 renal was above 100 µM in each case. In addition, in the assay on UO-31 renal, the GI50 is above 100 µM. In addition, the TGI with A498 renal, with IGROV1 ovarian, in the assay on OVCAR-5 ovarian, with OVCAR-8 ovarian, in the assay with SK-MEL-5 melanoma and with TK-10 renal was above 100 µM throughout. The molecule further had a TGI in the assay on UO-31 renal above 100 µM.

Regarding `COc1cc(/C=C\c2ccc(Br)cc2)cc(OC)c1OC`, the TGI in the assay on IGROV1 ovarian is above 100 µM; in the assay on OVCAR-5 ovarian, 96.8 µM; in the assay with SK-MEL-5 melanoma, 0.109 µM; with SR leukemia it was 10.6 µM.

Regarding `C=C1CCCC2[C@](C)(CC3=C(O)C(=O)C=C(OC)C3=O)[C@@H](C)CC[C@]12C` (some centres not stated), the TGI in the assay with IGROV1 ovarian is 16 µM; with OVCAR-8 ovarian, above 100 µM; in the assay on SK-MEL-5 melanoma, 9.35 µM; with TK-10 renal, above 100 µM.

With `O=C(N/C(=C\c1ccc(/C=C(\NC(=O)c2ccccc2)c2nc3ccccc3s2)cc1)c1nc2ccccc2s1)c1ccccc1`, the TGI with A498 renal amounted to 32.5 µM; in the assay on IGROV1 ovarian it was 18.6 µM; with OVCAR-5 ovarian, 31 µM; in the assay with OVCAR-8 ovarian, 5.51 µM; in the assay on SK-MEL-5 melanoma, 17.8 µM; in the assay with TK-10 renal, 25.2 µM. The TGI in the assay with UO-31 renal was 10.7 µM.

In the case of `N#Cc1ccc(Oc2cccc(Oc3ccccc3)c2)cc1C#N`, the TGI in the assay on A498 renal, in the assay with IGROV1 ovarian, in the assay on OVCAR-5 ovarian, in the assay on OVCAR-8 ovarian, in the assay with SK-MEL-5 melanoma and in the assay on TK-10 renal was above 100 µM throughout. In the assay with UO-31 renal, this molecule displayed a TGI of 61.6 µM. Besides, the GI50 with IGROV1 ovarian, in the assay with OVCAR-5 ovarian, in the assay on OVCAR-8 ovarian and with TK-10 renal was above 100 µM throughout.

On to `O=C1C(=O)N(c2nccs2)C(=O)C(=O)C1c1nc2ccccc2s1`, for which the TGI with IGROV1 ovarian, with OVCAR-5 ovarian, in the assay with OVCAR-8 ovarian, in the assay on TK-10 renal and in the assay with UO-31 renal was above 100 µM throughout.

Turning to `CC(=O)[O-].[Zn].c1ccc(/C(=N\Nc2ccccn2)c2ccccn2)cc1`, the TGI is 9.16 µM with A498 renal; 0.272 µM with IGROV1 ovarian; 2.4 µM in the assay with OVCAR-8 ovarian; 1.59 µM with SK-MEL-5 melanoma; 3.34 µM with TK-10 renal; 16.5 µM in the assay on UO-31 renal. Besides, the figures for the GI50 with OVCAR-8 ovarian, in the assay on SK-MEL-5 melanoma and with UO-31 renal were 0.0708 µM, 0.447 µM and 0.332 µM, respectively.

As for `CCn1c(=O)c2ccccc2n2c(=O)c3cc4ccccc4cc3nc12`, the TGI in the assay with A498 renal, with IGROV1 ovarian, with OVCAR-5 ovarian, with OVCAR-8 ovarian, in the assay on SK-MEL-5 melanoma and in the assay with TK-10 renal was above 100 µM each time. In the assay with UO-31 renal, this molecule yielded a TGI above 100 µM.
